Assay results: article PMC9541094 (Chemistry (Weinheim an der Bergstrasse, Germany), 2022)

Tested on: tumor spheroids of MDA-MB-231 cells and murine bone marrow derived macrophages
Assay: 3D co-culture spheroid viability, alamar blue assay
Assay type: cell-based, human; murine
Settings: doxorubicin 1.25 μM alone

SMILES: COc1cccc2c1C(=O)c1c(O)c3c(c(O)c1C2=O)C[C@@](O)(C(=O)CO)C[C@@H]3O[C@H]1C[C@H](N)[C@H](O)[C@H](C)O1 [doxorubicin]
- 3D spheroid viability versus vehicle control: ~100%
